Residue numbers refer to the chain shown, from its start.
T1: HT1-A109V (Arabidopsis, UniProt Q2MHE4 1-390)
T1 construct: Recombinant HT1 isoform; No tag is stated for the variant; also called ht1-A109V isoform
T1 sequence: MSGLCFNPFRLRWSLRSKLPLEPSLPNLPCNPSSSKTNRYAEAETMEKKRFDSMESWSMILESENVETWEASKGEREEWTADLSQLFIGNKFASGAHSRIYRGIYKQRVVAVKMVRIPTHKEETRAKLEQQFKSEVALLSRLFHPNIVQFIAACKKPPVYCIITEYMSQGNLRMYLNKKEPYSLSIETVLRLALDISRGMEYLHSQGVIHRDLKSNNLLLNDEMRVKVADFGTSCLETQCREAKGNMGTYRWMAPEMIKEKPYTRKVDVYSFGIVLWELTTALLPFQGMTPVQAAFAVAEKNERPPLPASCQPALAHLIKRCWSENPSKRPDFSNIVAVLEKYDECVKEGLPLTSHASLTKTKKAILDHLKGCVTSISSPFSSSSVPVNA

T2: HT1-G89R (Arabidopsis, UniProt Q2MHE4 1-390)
T2 construct: Recombinant HT1 isoform; No tag is stated for the variant; the wild type in the same pull-down was His-HT1; also called ht1-G89R isoform
T2 sequence: T1 sequence with G89R, V109A

T3: His-HT1 (recombinant Arabidopsis HT1 protein kinase, wild type, with His tag)
T3 chain: T1 sequence with V109A

T4: HT1-R102K (Arabidopsis, UniProt Q2MHE4 1-390)
T4 construct: Recombinant HT1 isoform; No tag is stated for the variant
T4 sequence: T1 sequence with R102K, V109A

B1: GST-MPK4 (recombinant Arabidopsis MAP kinase MPK4 with GST tag) (enzyme)
chain: MSAESCFGSSGDQSSSKGVATHGGSYVQYNVYGNLFEVSRKYVPPLRPIGRGAYGIVCAATNSETGEEVAIKKIGNAFDNIIDAKRTLREIKLLKHMDHENVIAVKDIIKPPQRENFNDVYIVYELMDTDLHQIIRSNQPLTDDHCRFFLYQLLRGLKYVHSANVLHRDLKPSNLLLNANCDLKLGDFGLARTKSETDFMTEYVVTRWYRAPELLLNCSEYTAAIDIWSVGCILGETMTREPLFPGKDYVHQLRLITELIGSPDDSSLGFLRSDNARRYVRQLPQYPRQNFAARFPNMSAGAVDLLEKMLVFDPSRRITVDEALCHPYLAPLHDINEEPVCVRPFNFDFEQPTLTEENIKELIYRETVKFNPQDSV
notes: The tag is placed at the N-terminus only because of the printed name GST-MPK4; The phosphorylation assays say only 'MPK4' and name no tag; also called AtMPK4; AT4G01370; not shown: GST tag

Columns and labels:
[1] = tested on: MPK4/12, HT1 and CBC1 recombinant proteins; assay: in vitro phosphorylation assay: NaHCO3-dependent down-regulation of HT1-mediated CBC1 phosphorylation; assay type: biochemical, Arabidopsis
[2] = molecular target: T5, MPK4/12, HT1 and CBC1 recombinant proteins (Arabidopsis thaliana, UniProt Q2MHE4); assay: as above; assay type: biochemical; settings: HT1 and CBC1 only, no MPK4/MPK12; 20 mM NaHCO3, 30 min
T5 construct: His; made in house

[3] = molecular target: T6, MPK4/12, HT1 and CBC1 recombinant proteins (Arabidopsis thaliana, UniProt Q2MHE4+Q39024); assay: as above; assay type: biochemical
T6 construct: His; made in house

S-type anion channels = settings: proposed secondary HCO3- response mechanism (ref. 10); cited from earlier work
MPK4 and HT1 = molecular target: T7, MPK4 and HT1 (Arabidopsis thaliana, UniProt Q2MHE4+Q39024); assay: in vitro pull-down assay, His-HT1 with GST-MPK4; assay type: binding; settings: 20 mM NaHCO3 in all buffers
T7 construct: made in house

HT1-A109V = molecular target: T1, HT1-A109V; assay: in vitro pull-down with or without NaHCO3 (FIG. 4G, n=3)
HT1-G89R = molecular target: T2, HT1-G89R; assay: in vitro pull-down with or without NaHCO3 (FIG. 4E, n=3)
Description: FIG. 4E illustrates gel protein separation images showing data where in vitro pull-down assays were performed using recombinant HT1 (wild type, HT1-G89R and HT1-R173Q) proteins;
FIG. 4. Bicarbonate inactivates HT1 kinase by stabilizing HT1 interaction with MPK4/12. [0265] (A) Recombinant CBC1, HT1 and MPK4 proteins are incubated with or without 20 mM NaHCO₃ for 30 min, and in vitro phosphorylation assays were performed. [0266] (B) CBC1 and HT1 proteins were incubated with or without 20 mM NaHCO₃ or 20 mM NaCl (“−” controls) in the presence or absence of MPK12 protein. [0267] (C) His-HT1 and GST-MPK4 or GST control proteins were used for in vitro pull-down assays with or without 20 mM NaHCO₃. NaHCO₃ or 20 mM NaCl (“−” controls) were supplemented in all buffers throughout the pull-down assay procedures including the washing step. [0268] […] [0269] (E) In vitro pull-down assays were performed using recombinant HT1 (wild type, HT1-G89R and HT1-R173Q) proteins. [0270] (F) In vitro pull-down assays were performed using HT1-R102K isoform. [0271] (G) In vitro pull-down assays were performed using HT1-A109V isoform. [0272] […] [0273] (I) Stomatal conductances were analyzed in leaves of intact Arabidopsis plants [Col-0 (WT), mpk 12, pGC1:MPK12-GFP/mpk12 and pGC1:MPK12 (K70R)-GFP/mpk12]. CO₂ concentration changes were applied as indicated on top (p.p.m.). n=6 experiments, error bars show ±SEM. [0274] […]

[4] = molecular target: T3, His-HT1 (recombinant Arabidopsis HT1 …)
HT1-R102K = molecular target: T4, HT1-R102K; assay: in vitro pull-down with or without NaHCO3 (FIG. 4F, n=3)

T6 sequence (Q2MHE4 whole entry, one chain of several): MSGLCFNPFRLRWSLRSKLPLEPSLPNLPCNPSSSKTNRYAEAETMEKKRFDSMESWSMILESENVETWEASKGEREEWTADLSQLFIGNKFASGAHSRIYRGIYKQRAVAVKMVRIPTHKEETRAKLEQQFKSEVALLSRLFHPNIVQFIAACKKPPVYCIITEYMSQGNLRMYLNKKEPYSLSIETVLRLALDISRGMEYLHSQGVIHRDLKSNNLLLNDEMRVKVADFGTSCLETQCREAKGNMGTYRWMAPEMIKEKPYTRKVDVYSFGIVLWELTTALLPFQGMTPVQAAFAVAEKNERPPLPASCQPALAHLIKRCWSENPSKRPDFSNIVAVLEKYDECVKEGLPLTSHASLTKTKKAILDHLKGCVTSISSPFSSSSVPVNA
T7 sequence (Q2MHE4 whole entry, one chain of several): as above
T5 sequence (Q2MHE4 whole entry): as the sequence (Q2MHE4 whole entry, one chain of several) above

| Molecule | effect of NaHCO3 on CBC1 and histone phosphorylation ([1]; MPK4 or MPK12 added to HT1 and CBC1, 20 mM NaHCO3, 30 min) | kinase activities of CBC1, HT1 or MPK4 exposed to NaHCO3 individually ([1]; each kinase alone, 20 mM NaHCO3, 30 min) | CBC1 activity in response to NaHCO3 ([1]; only MPK12 and CBC1 in the reaction, no HT1, 20 mM NaHCO3) | HT1 kinase activity in response to NaHCO3 ([1]; only in the presence of MPK12, 20 mM NaHCO3) | effect of NaHCO3 on CBC1 phosphorylation level [2] | EC50 [3] | effect of NaHCO3 on CBC1 phosphorylation at different pH ([3]; MPK4 and HT1 present, high pH conditions at ≥pH 7.5 (buffers pH 6.5 to 8.5)) | modulation of activity of S-type anion channels by HCO3- (S-type anion channels) | effect of HCO3- on binding between MPK4 and HT1 (MPK4 and HT1) | binding result (HT1-A109V) | binding result (HT1-G89R) | CBC1 and histone phosphorylation in vitro (HT1 + CBC1 + MPK4, 20 mM NaHCO3; FIG. 2A, n>6) [4] | binding result (HT1-R102K) |
| --- | --- | --- | --- | --- | --- | --- | --- | --- | --- | --- | --- | --- | --- |
| O=C(O)O [NaHCO3] | inhibited both CBC1 phosphorylation and histone phosphorylation | not affected | not affected | inhibited | no clear effect | ~7.1 mM | inhibited CBC1 phosphorylation | ~20% | greatly enhanced the binding |  |  |  |  |
| B1 |  |  |  |  |  |  |  |  |  | no binding | no binding | when MPK4 or MPK12 were added to the reaction, we found that the addition of NaHCO3, but not NaCl, inhibited both CBC1 phosphorylation and histone phosphorylation in vitro | no binding |

Reference: patent US20260078398A1, “PLANTS GENETICALLY ENGINEERED FOR INCREASED WATER USE EFFICIENCY AND CARBON INTAKE AND METHODS FOR MAKING AND USING THEM” (The Regents of the University of California, priority 2022, published 2026)
